Source: paper PMC9374667 (Communications Biology, 2022)
Values joined by “and” are separate entries in the source; they are usually repeats but may differ in a detail not shown here. Equal values may be shown once.

Assays:
Format in all cases: cell-based, Murine
IKKε [1] = biological target: T1, IKKε (Mus musculus, UniProt Q9R0T8); assay: 3T3-L1 adipocytes transfected with IKKε plasmid (western blotting, cAMP, glycerol, ISO); parameters: endogenous in cells; host or cells: differentiated 3T3-L1 adipocytes; IKKε (western blotting, Figure 8h) / UCP1 (western blotting, Figure 8i) / UCP1 (western blotting, Figure 8j): scale not given here; cAMP levels (Figure 8k) / Glycerol release (Figure 8l): unit not given here
T1 sequence (Q9R0T8 1-717): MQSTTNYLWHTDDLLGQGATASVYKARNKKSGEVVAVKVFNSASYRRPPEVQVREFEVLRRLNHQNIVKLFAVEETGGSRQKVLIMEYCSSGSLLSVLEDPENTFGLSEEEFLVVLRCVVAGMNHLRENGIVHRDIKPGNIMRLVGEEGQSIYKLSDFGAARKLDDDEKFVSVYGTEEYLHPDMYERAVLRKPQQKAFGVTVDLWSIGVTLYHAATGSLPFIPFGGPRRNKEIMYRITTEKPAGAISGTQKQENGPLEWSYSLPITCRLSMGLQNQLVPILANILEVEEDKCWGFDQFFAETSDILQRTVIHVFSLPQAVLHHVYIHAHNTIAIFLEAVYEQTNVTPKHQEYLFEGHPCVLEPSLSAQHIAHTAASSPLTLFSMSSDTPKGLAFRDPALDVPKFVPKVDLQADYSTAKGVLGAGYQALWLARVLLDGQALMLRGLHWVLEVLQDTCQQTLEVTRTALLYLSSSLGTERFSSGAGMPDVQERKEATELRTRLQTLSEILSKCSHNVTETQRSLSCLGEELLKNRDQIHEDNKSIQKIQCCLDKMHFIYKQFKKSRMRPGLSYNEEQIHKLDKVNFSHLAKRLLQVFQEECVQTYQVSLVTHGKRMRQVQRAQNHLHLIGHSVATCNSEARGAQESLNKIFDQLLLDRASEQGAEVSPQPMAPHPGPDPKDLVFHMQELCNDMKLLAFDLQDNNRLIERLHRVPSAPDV
Method: (§1) Small interference RNA transfection (siRNA) was performed using 4 μM TBK1 siRNA (siTBK1) or 4 μM […]ε) or corresponding NC siRNA (siNC). The epididymal adipose tissue was dissected, the fresh adipose tissue was weighed and rapidly rinsed with PBS. The adipose tissue was cut and incubated with isoproterenol (10 μM) for 2 h, and homogenized in a cold cleavage buffer to prepare the adipose tissue homogenate. Then the homogenate was centrifuged at 12,000 × g at 4 °C for 15 min, and the supernatant was collected. […] Then the cells were lysed in a petri dish, scraped off, and centrifuged at 12,000 × g at 4 °C for 15 min before the supernatant was collected. […] And concentrations were further standardized according to protein concentration. The adipose tissue or 3T3-L1 adipocytes were homogenized by ultrasound in an ice-cold RIPA lysis buffer containing 1% PMSF and centrifuged at 12,000 × g at 4°C for 15 min to collect the supernatant. The BCA protein assay kit (Beyotime, Shanghai, China) was used to detect the total protein concentration. Proteins (20-30 μg) of the sample were separated by 10% SDS-PAGE gel and transferred onto polyvinylidene difluoride (PVDF) membranes. Then the PVDF membranes were blocked in 5% skim milk powder in TBS containing 1% Tween-20 (TBST) for 2 h at room temperature and washed with TBST for 3 times. […] After washing, the membranes were incubated with horseradish peroxidase-conjugated secondary antibodies (in 5% skim milk powder) for 1 h at room temperature. Finally, the membranes were treated with enhanced chemiluminescence agents (Tanon, Shanghai, China) and the signals were monitored using the Tanon 5200 multi chemiluminescent imaging system (Tanon, Shanghai, China).

IKKε [2] = biological target: T1, IKKε; assay: IKKε-knockdown 3T3-L1 adipocytes (siRNA; western blotting, cAMP, glycerol, ISO); parameters: endogenous in cells; host or cells: differentiated 3T3-L1 adipocytes; settings: ISO +, 10μM BJ -
Method: as §1

cAMP, glycerol release = assay: cAMP levels and glycerol release in TNF-α induced 3T3-L1 adipocytes (isoproterenol)
Method: The epididymal adipose tissue was dissected, the fresh adipose tissue was weighed and rapidly rinsed with PBS. The adipose tissue was cut and incubated with isoproterenol (10 μM) for 2 h, and homogenized in a cold cleavage buffer to prepare the adipose tissue homogenate. Then the homogenate was centrifuged at 12,000 × g at 4 °C for 15 min, and the supernatant was collected. […] Then the cells were lysed in a petri dish, scraped off, and centrifuged at 12,000 × g at 4 °C for 15 min before the supernatant was collected. […] And concentrations were further standardized according to protein concentration.

SMILES: CC(C)NCC(O)c1ccc(O)c(O)c1 (stereo not shown) [ISO]
- Glycerol release (Figure 8l) (IKKε [1]; ISO): 108.886 and 102.136 and 112.261
- UCP1 (western blotting, Figure 8j) (IKKε [1]; ISO): 0.8258 and 0.5499 and 0.929
- cAMP levels (Figure 8k) (IKKε [1]; ISO): 0.2652 and 0.258 and 0.2726
- Glycerol release (Figure 8l) (IKKε [1]; ISO+IKKε): 84.4172 and 90.3234 and 97.917
- UCP1 (western blotting, Figure 8j) (IKKε [1]; ISO+IKKε): 0.3959 and 0.3641 and 0.3989
- cAMP levels (Figure 8k) (IKKε [1]; ISO+IKKε): 0.1824 and 0.1892 and 0.1882
- Glycerol (Figure 9l) (IKKε [2]; siIKKϵ +): 169.673 µmol/L and 171.907 µmol/L and 177.534 µmol/L
- UCP1 (western blotting, Figure 9J) (IKKε [2]; siIKKϵ +): 0.6893 and 0.7105 and 0.7747
- cAMP (Figure 9k) (IKKε [2]; siIKKϵ +): 0.3589 pmol/mg protein and 0.3755 pmol/mg protein and 0.3876 pmol/mg protein and 0.3693 pmol/mg protein and 0.3629 pmol/mg protein and 0.3678 pmol/mg protein
- Glycerol (Figure 9l) (IKKε [2]; siIKKϵ -): 104.409 µmol/L and 108.54 µmol/L and 120.987 µmol/L
- UCP1 (western blotting, Figure 9J) (IKKε [2]; siIKKϵ -): 0.5841 and 0.5565 and 0.4767
- cAMP (Figure 9k) (IKKε [2]; siIKKϵ -): 0.2714 pmol/mg protein and 0.2836 pmol/mg protein and 0.2536 pmol/mg protein and 0.2485 pmol/mg protein and 0.2952 pmol/mg protein
- Glycerol release in differentiated 3T3-L1 adipocytes induced by TNF-α (cAMP, glycerol release; ISO): 113.104 µmol/L and 118.167 µmol/L and 114.792 µmol/L
- cAMP levels in differentiated 3T3-L1 adipocytes induced by TNF-α (cAMP, glycerol release; ISO): 0.361 pmol/mg protein and 0.3597 pmol/mg protein and 0.3681 pmol/mg protein
- Glycerol release in differentiated 3T3-L1 adipocytes induced by TNF-α (cAMP, glycerol release; ISO+TNF-α(50ng/ml)): 103.823 µmol/L and 102.136 µmol/L and 105.511 µmol/L
- cAMP levels in differentiated 3T3-L1 adipocytes induced by TNF-α (cAMP, glycerol release; ISO+TNF-α(50ng/ml)): 0.2016 pmol/mg protein and 0.1968 pmol/mg protein and 0.1945 pmol/mg protein
